According to patent EP2293808B1, “AN SYNTHETIC PEPTIDE CONTAINING BONE FORMING PEPTIDE 1(BFP 1) FOR STIMULATING OSTEOBLAST DIFFERENTIATION, AND PHARMACEUTICAL COMPOSITION COMPRISING THE SYNTHETIC PEPTIDE” (Industry Foundation Of Chonnam National University, priority 2008, dated 2012):
Ends that are not written are not given here.

Test system: cells
Assay: MTT assay for cytotoxicity
Assay type: cell-based
Details: within a range of used concentrations, FIG. 3

GQGFSYPYKAVFSTQ [BFP 1, Gly-Gln-Gly-Phe-Ser-Tyr-Pro-Tyr-Lys-Ala-Val-Phe-Ser-Thr-Gln]
cytotoxicity: not toxic to cells
